Measured values: patent US8791123B2, “Substituted pyrazolo[1,5-a]pyrimidine compounds as Trk kinase inhibitors” (Array Biopharma, Inc., priority 2009, dated 2014)
Read-outs that look alike come from different tables or passages of the source.

Legend:
[1] = target: TrkA (histidine-tagged recombinant human TrkA, cytoplasmic domain) (Homo sapiens (Human), UniProt P04629); assay: TrkA ELISA Assay; assay type: biochemical; conditions: Table 1; ELISA, 500 μM ATP; read-out: TrkA Enzyme IC50
In short: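 ELISA read-out: a peroxidase-linked anti-phosphotyrosine antibody (PY20, 0.2 μg/mL) with TMB substrate, absorbance at 450 nm after acid stop. The plate-bound substrate was poly(Glu,Ala,Tyr; 6:3:1) at 0.025 mg/mL, phosphorylated by the recombinant His-tagged human TrkA cytoplasmic domain in the presence of inhibitors.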

[2] = target: Human Jak2 kinase domain (Homo sapiens (Human), UniProt O60674); assay: Jak2 Inhibition Assay (Omnia kinase assay); assay type: biochemical; conditions: read-out: Jak2 Enzyme IC50
Chain of Human Jak2 kinase domain (O60674 808-1132): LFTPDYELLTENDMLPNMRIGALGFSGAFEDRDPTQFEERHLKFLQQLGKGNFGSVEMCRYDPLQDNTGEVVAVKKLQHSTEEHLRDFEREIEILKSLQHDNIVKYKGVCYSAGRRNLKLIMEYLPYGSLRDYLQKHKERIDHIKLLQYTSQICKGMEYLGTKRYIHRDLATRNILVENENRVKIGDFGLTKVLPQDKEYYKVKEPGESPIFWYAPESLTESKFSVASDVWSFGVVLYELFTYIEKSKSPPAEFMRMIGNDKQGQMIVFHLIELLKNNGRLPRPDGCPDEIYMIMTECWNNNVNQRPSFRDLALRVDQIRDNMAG

[3] = Table 1, 500 μM ATP, >1000 nM when >50% inhibition not observed at 1000 nM

Chain of TrkA (histidine-tagged recombinant human TrkA, cytoplasmic domain) (P04629 440-796): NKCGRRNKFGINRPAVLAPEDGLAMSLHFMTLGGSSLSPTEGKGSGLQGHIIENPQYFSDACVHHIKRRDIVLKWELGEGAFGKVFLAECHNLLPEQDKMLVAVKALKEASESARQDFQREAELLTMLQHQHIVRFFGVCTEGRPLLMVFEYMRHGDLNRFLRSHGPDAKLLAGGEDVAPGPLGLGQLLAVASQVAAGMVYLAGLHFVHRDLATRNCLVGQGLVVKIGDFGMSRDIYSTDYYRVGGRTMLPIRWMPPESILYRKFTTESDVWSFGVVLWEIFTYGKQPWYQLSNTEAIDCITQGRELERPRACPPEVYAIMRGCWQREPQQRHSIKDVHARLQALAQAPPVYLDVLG

Structure (SMILES) | IC50 [1] | IC50 [2, 3] | IC50 [2]
O=C(N[C@H]1CCC[C@H]1O)c1cnn2ccc(N3CCC[C@@H]3c3cncc(F)c3)nc12 [Example 104, 5-((R)-2-(5-fluoropyridin-3-yl)pyrrolidin-1-yl)-N-((1S,2R)-2-hydroxycyclopentyl)pyrazolo[1,5-a]pyrimidine-3-carboxamide] | 83.1 nM | > 1000 nM | 
O=C(NC1CCOCC1)c1cnn2ccc(N3CCC[C@@H]3c3cncc(F)c3)nc12 [Example 72, (R)-5-(2-(5-fluoropyridin-3-yl)pyrrolidin-1-yl)-N-(tetrahydro-2H-pyran-4-yl)pyrazolo[1,5-a]pyrimidine-3-carboxamide] | 44.4 nM | > 1000 nM | 
O=C(NC1CCOCC1)c1cnn2ccc(N3CCC[C@@H]3c3cc(F)ccc3F)nc12 [Example 20, (R)-5-(2-(2,5-difluorophenyl)pyrrolidin-1-yl)-N-(tetrahydro-2H-pyran-4-yl)pyrazolo[1,5-a]pyrimidine-3-carboxamide] | 0.6 nM | 257 nM | 
CC1(C)OCC(COc2ccc(F)cc2[C@H]2CCCN2c2ccn3ncc(C(N)=O)c3n2)O1 (stereo partly drawn) [Example 205, 5-((2R)-2-(2-((2,2-dimethyl-1,3-dioxolan-4-yl)methoxy)-5-fluorophenyl)pyrrolidin-1-yl)pyrazolo[1,5-a]pyrimidine-3-carboxamide] | 14.3 nM | > 1000 nM | 
O=C(NC1CC1)c1cnn2ccc(N3CCC[C@@H]3c3cc(F)cc(OCC(O)CO)c3)nc12 (stereo partly drawn) [Example 208, N-cyclopropyl-5-((2R)-2-(3-(2,3-dihydroxypropoxy)-5-fluorophenyl)pyrrolidin-1-yl)pyrazolo[1,5-a]pyrimidine-3-carboxamide] | 1.7 nM | > 1000 nM | 
CNC(=O)c1cnn2ccc(N3C[C@@H](O)C[C@@H]3c3cccc(F)c3)nc12 [Example 218, 5-((2R,4S)-2-(3-fluorophenyl)-4-hydroxypyrrolidin-1-yl)-N-methylpyrazolo[1,5-a]pyrimidine-3-carboxamide] | 33.9 nM | > 1000 nM | 
CC(C)(CF)NC(=O)c1cnn2ccc(N3CCC[C@@H]3c3cncc(F)c3)nc12 [Example 71, (R)—N-(1-fluoro-2-methylpropan-2-yl)-5-(2-(5-fluoropyridin-3-yl)pyrrolidin-1-yl)pyrazolo[1,5-a]pyrimidine-3-carboxamide] | 8.65 nM | > 1000 nM | 
O=C(NCCO)c1cnn2ccc(N3CCCC3c3cc(F)ccc3F)nc12 (centres unmarked) [Example 165, 5-(2-(2,5-difluorophenyl)pyrrolidin-1-yl)-N-(2-hydroxyethyl)pyrazolo[1,5-a]pyrimidine-3-carboxamide] | 1.1 nM | > 1000 nM | 
CC(C)NC(=O)c1cnn2ccc(N3[C@H](CO)CC[C@@H]3c3cncc(F)c3)nc12 [Example 215, 5-((2R,5S)-2-(5-fluoropyridin-3-yl)-5-(hydroxymethyl)pyrrolidin-1-yl)-N-isopropylpyrazolo[1,5-a]pyrimidine-3-carboxamide] | 15.3 nM | > 1000 nM | 
C[C@H](CO)NC(=O)c1cnn2ccc(N3CCC[C@@H]3c3cncc(F)c3)nc12 [Example 115, 5-((R)-2-(5-fluoropyridin-3-yl)pyrrolidin-1-yl)-N-((R)-1-hydroxypropan-2-yl)pyrazolo[1,5-a]pyrimidine-3-carboxamide] | 15.3 nM | > 1000 nM | 
C[C@H](NC(=O)c1cnn2ccc(N3[C@@H](c4cncc(F)c4)CC[C@@]3(C)CO)nc12)C(F)(F)F [Example 220, 5-((2S,5R)-5-(5-fluoropyridin-3-yl)-2-(hydroxymethyl)-2-methylpyrrolidin-1-yl)-N—((S)-1,1,1-trifluoropropan-2-yl)pyrazolo[1,5-a]pyrimidine-3-carboxamide] | 110 nM |  | > 1000 nM
COc1ncc(F)cc1[C@H]1CCCN1c1ccn2ncc(C(=O)NC(C)(C)C)c2n1 [Example 80, (R)—N-tert-butyl-5-(2-(5-fluoro-2-methoxypyridin-3-yl)pyrrolidin-1-yl)pyrazolo[1,5-a]pyrimidine-3-carboxamide] | 1.8 nM |  | 869 nM
Cn1cc(F)cc([C@H]2CCCN2c2ccn3ncc(C(=O)NCC4CC4)c3n2)c1=O [Example 232, (R)-N-(cyclopropylmethyl)-5-(2-(5-fluoro-1-methyl-2-oxo-1,2-dihydropyridin-3-yl)pyrrolidin-1-yl)pyrazolo[1,5-a]pyrimidine-3-carboxamide] | 4.5 nM | > 1000 nM | 
C[C@@H](O)CNC(=O)c1cnn2ccc(N3CCCC3c3cc(F)ccc3F)nc12 (stereo in doubt) [Example 167, 5-((R)-2-(2,5-difluorophenyl)pyrrolidin-1-yl)-N-(2-hydroxypropyl)pyrazolo[1,5-a]pyrimidine-3-carboxamide] | 2.2 nM | > 1000 nM | 
CC(C)(CO)CNC(=O)c1cnn2ccc(N3CCC[C@@H]3c3cncc(F)c3)nc12 [Example 125, (R)-5-(2-(5-fluoropyridin-3-yl)pyrrolidin-1-yl)-N-(3-hydroxy-2,2-dimethylpropyl)pyrazolo[1,5-a]pyrimidine-3-carboxamide] | 12.8 nM | > 1000 nM | 
CC(C)NC(=O)c1cnn2ccc(N3CCC[C@@H]3c3cc(F)cn(C)c3=O)nc12 [Example 227, (R)-5-(2-(5-fluoro-1-methyl-2-oxo-1,2-dihydropyridin-3-yl)pyrrolidin-1-yl)-N-isopropylpyrazolo[1,5-a]pyrimidine-3-carboxamide] | 12.3 nM | 446 nM | 
COCCOc1cc(F)cc([C@H]2CCCN2c2ccn3ncc(C(N)=O)c3n2)c1 [Example 78, (R)-5-(2-(3-fluoro-5-(2-methoxyethoxy)phenyl)pyrrolidin-1-yl)pyrazolo[1,5-a]pyrimidine-3-carboxamide] | 34.9 nM | > 1000 nM | 
CNC(=O)c1cnn2ccc(N3C[C@H](O)C[C@@H]3c3cccc(F)c3)nc12 [Example 43, 5-((2R,4R)-2-(3-fluorophenyl)-4-hydroxypyrrolidin-1-yl)-N-methylpyrazolo[1,5-a]pyrimidine-3-carboxamide] | 139 nM | > 1000 nM | 
O=C(NOCC1CC1)c1cnn2ccc(N3CCC[C@@H]3c3cc(F)ccc3F)nc12 [Example 66, (R)—N-(cyclopropylmethoxy)-5-(2-(2,5-difluorophenyl)pyrrolidin-1-yl)pyrazolo[1,5-a]pyrimidine-3-carboxamide] | 0.57 nM | > 1000 nM | 
CC(C)(CO)NC(=O)c1cnn2ccc(N3CCC[C@@H]3c3cncc(F)c3)nc12 [Example 132, (R)-5-(2-(5-fluoropyridin-3-yl)pyrrolidin-1-yl)-N-(1-hydroxy-2-methylpropan-2-yl)pyrazolo[1,5-a]pyrimidine-3-carboxamide] | 44.4 nM | > 1000 nM | 
CC(C)(CO)NC(=O)c1cnn2ccc(N3CCC[C@@H]3c3cc(F)ccc3F)nc12 [Example 8, (R)-5-(2-(2,5-difluorophenyl)pyrrolidin-1-yl)-N-(1-hydroxy-2-methylpropan-2-yl)pyrazolo[1,5-a]pyrimidine-3-carboxamide] | 1.1 nM | > 1000 nM | 
CC1(O)CN(C(=O)c2cnn3ccc(N4CCC[C@@H]4c4cc(F)ccc4F)nc23)C1 [Example 32, (R)-(5-(2-(2,5-difluorophenyl)pyrrolidin-1-yl)pyrazolo[1,5-a]pyrimidin-3-yl)(3-hydroxy-3-methylazetidin-1-yl)methanone] | 5.3 nM | > 1000 nM | 
